Assays:
SGK1 = molecular target: T1, SGK1 (Homo sapiens, UniProt O00141); assay: IC50 for kinase SGK (selectivity); assay type: biochemical
T1 sequence (O00141 1-431): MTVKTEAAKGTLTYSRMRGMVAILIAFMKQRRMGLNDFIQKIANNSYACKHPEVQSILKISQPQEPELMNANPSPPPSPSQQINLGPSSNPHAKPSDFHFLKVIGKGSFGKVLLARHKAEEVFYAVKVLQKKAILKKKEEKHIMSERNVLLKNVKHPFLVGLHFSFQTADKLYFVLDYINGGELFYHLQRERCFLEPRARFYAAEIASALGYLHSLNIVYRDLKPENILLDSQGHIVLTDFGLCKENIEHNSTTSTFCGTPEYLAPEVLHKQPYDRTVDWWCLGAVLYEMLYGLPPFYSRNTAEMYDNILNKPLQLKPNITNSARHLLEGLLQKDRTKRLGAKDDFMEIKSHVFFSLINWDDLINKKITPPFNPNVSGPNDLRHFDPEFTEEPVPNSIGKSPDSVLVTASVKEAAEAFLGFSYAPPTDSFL
Experimental: Entries identified with “1” had values above 15 nM; entries identified with “2” had values above 100 nM; entries identified with “3” had values above 1 μM; entries identified with “4” had values above 10 μM. In Table 2, “nd” stands for “not determined.”

PKC delta = PKC delta (Homo sapiens, UniProt Q05655); assay: Ki Pan Vera (PV) PKC delta; assay type: biochemical
PKC delta, sequence (Q05655 whole entry): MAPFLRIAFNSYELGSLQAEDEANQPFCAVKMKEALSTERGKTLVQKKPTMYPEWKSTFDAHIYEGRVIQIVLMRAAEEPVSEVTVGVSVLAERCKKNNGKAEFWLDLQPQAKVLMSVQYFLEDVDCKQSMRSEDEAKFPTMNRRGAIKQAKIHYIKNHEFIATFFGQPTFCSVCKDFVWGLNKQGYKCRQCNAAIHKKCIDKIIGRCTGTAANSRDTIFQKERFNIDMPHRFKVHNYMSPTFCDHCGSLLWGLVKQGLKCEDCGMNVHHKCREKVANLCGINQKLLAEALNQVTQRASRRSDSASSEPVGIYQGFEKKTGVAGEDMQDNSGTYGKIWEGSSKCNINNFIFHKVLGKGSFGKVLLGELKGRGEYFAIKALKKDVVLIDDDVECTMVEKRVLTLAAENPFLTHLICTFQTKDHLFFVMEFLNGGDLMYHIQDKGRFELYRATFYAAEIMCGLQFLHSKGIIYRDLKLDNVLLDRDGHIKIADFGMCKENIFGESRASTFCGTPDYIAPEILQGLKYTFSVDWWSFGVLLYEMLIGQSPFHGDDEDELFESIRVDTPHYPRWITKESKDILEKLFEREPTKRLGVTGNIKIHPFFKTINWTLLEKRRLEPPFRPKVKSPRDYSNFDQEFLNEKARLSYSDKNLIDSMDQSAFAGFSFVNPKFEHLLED

PKCθ = PKCθ (Homo sapiens, UniProt Q04759); assay: Ki Pan Vera (PV) PKCθ; assay type: biochemical
PKCθ, sequence (Q04759 whole entry): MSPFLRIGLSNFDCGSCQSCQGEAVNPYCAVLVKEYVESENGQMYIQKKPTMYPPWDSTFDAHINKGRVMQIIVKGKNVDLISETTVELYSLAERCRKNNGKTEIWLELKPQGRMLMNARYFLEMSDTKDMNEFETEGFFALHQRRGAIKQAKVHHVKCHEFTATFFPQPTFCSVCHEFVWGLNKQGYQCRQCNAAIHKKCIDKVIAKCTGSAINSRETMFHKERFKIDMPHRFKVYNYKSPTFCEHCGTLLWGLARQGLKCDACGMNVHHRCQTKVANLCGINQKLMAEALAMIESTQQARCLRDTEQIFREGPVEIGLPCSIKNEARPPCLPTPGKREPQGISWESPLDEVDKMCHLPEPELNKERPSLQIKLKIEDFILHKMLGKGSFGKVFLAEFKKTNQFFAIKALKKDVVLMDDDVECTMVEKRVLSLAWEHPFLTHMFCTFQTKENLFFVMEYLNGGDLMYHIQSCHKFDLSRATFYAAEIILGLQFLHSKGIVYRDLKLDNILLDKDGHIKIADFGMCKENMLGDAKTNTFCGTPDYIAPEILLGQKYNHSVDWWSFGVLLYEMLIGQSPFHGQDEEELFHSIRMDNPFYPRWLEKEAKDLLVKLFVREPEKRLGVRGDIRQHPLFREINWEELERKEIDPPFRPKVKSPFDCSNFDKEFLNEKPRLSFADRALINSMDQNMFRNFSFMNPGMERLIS
Experimental: (§1) For Ki Pan Vera (PV) of PKCθ, entries identified with “A” had values below 100 nM; entries identified with “B” had values below 1 μM.

PKC alpha = PKC alpha (Homo sapiens, UniProt P17252); assay: Ki Pan Vera (PV) PKC alpha; assay type: biochemical
Experimental: [Worded in the source for another target; this target is reported under the same test.] as §1

[1] = tested on: anti-CD3 induced interleukin-2 (IL-2) production; assay: anti-CD3 induced IL-2 production in mice; assay type: in vivo; conditions: subcutaneous dose 30 mg/kg
Experimental: The compounds of the invention were also tested in vivo.

| Compound | IC50 (SGK1) [nM] | Ki (PKC delta) [nM] | Ki (PKCθ) [nM] | Ki (PKC alpha) [nM] | IC50-SGK1 (nM) (SGK1) | % inhibition of IL-2 production [1] [%] |
| --- | --- | --- | --- | --- | --- | --- |
| O=c1[nH]c2cnc(NC[C@H]3CCNC3)nc2n1Cc1ccccc1Cl [Compound 103] | > 1000 | > 15 | < 100 | > 1000 | – | – |
| O=c1[nH]c2cnc(NCC3CCNCC3)nc2n1Cc1c(Cl)cccc1Cl [Compound 205] | – | > 100 | < 1000 | > 10000 | Inactive | – |
| NCCCNc1ncc2[nH]c(=O)n(Cc3ccccc3F)c2n1 [Compound 208] | – | > 100 | < 1000 | > 10000 | Inactive | – |
| O=c1[nH]c2cnc(NCC3CCNC3)nc2n1[C@@H]1CCc2ccccc21 (some centres unmarked) [Compound 231] | – | > 1000 | < 1000 | > 10000 | – | – |
| O=c1[nH]c2cnc(NCC3CCNC3)nc2n1Cc1cccc(Cl)c1Cl (centres unmarked) [Compound 114] | > 10000 | > 100 | < 100 | > 10000 | – | – |
| O=c1[nH]c2cnc(NCC3CCNC3)nc2n1Cc1ccccc1Br (centres unmarked) [Compound 104] | > 10000 | > 15 | < 100 | > 1000 | – | – |
| NCCCNc1ncc2[nH]c(=O)n(Cc3cccc(Cl)c3Cl)c2n1 [Compound 117] | – | > 100 | < 100 | > 10000 | Inactive | – |
| O=c1[nH]c2cnc(NCC3CCNC3)nc2n1Cc1ccccc1F (centres unmarked) [Compound 204] | > 10000 | > 100 | < 1000 | > 10000 | – | – |
| O=c1[nH]c2cnc(NCC3CCNCC3)nc2n1Cc1cccc(Cl)c1 [Compound 215] | – | > 1000 | < 1000 | > 10000 | – | – |
| O=c1[nH]c2ccc(NC[C@H]3CCNC3)nc2n1Cc1c(Cl)cccc1Cl [Compound 148] | – | > 100 | < 100 | > 10000 | – | – |
| O=c1[nH]c2cnc(NCC3CCNC3)nc2n1Cc1c(F)cccc1Cl (centres unmarked) [Compound 106] | > 10000 | > 15 | < 100 | > 1000 | – | – |
| NCCCNc1ncc2[nH]c(=O)n(Cc3c(F)cccc3Cl)c2n1 [Compound 118] | – | > 100 | < 100 | > 10000 | Inactive | – |
| O=c1[nH]c2ccc(NC[C@@H]3CCNC3)nc2n1Cc1c(Cl)cccc1Cl [Compound 147, (R)-3-(2,6-Dichlorobenzyl)-5-(pyrrolidin-3-ylmethylamino)-1H-imidazo[4,5-b]pyridin-2(3H)-one] | > 10000 | > 15 | < 100 | > 1000 | – | – |
| O=c1[nH]c2cnc(NCC3CCNC3)nc2n1Cc1ccccc1OC(F)(F)F (centres unmarked) [Compound 112] | – | > 100 | < 100 | > 1000 | Inactive | – |
| O=c1[nH]c2cnc(NC[C@H]3CCCNC3)nc2n1Cc1ccccc1Br [Compound 141] | – | > 100 | < 1000 | > 10000 | Inactive | – |
| O=c1[nH]c2cnc(NC[C@@H]3CCNC3)nc2n1Cc1c(Cl)cccc1Cl [Compound 101] | – | > 15 | < 100 | > 1000 | – | 39 |
| NCCCNc1ccc2[nH]c(=O)n(Cc3ccccc3Cl)c2n1 [Compound 241] | – | > 100 | < 1000 | > 10000 | Inactive | – |
| NCCCNc1ncc2[nH]c(=O)n(Cc3cc(F)ccc3C(F)(F)F)c2n1 [Compound 133] | > 1000 | > 100 | < 100 | > 10000 | – | – |
| O=c1[nH]c2cnc(NC[C@@H]3CCCNC3)nc2n1Cc1ccccc1C(F)(F)F [Compound 144] | > 10000 | > 100 | < 1000 | > 10000 | – | – |
| O=c1[nH]c2cnc(NCC3CCNC3)nc2n1Cc1cc(F)ccc1C(F)(F)F (centres unmarked) [Compound 105] | > 1000 | > 15 | < 100 | > 1000 | – | – |
| NCCCNc1ncc2[nH]c(=O)n(Cc3ccccc3C(F)(F)F)c2n1 [Compound 136] | – | > 100 | < 100 | > 10000 | Inactive | – |
| O=c1[nH]c2cnc(NCC3CCNC3)nc2n1Cc1ccccc1Cl (centres unmarked) [Compound 113] | > 10000 | > 15 | < 100 | > 1000 | – | – |
| O=c1[nH]c2cnc(NC[C@H]3CCCNC3)nc2n1Cc1c(Cl)cccc1Cl [Compound 140] | > 10000 | > 100 | < 1000 | > 10000 | – | – |
